According to patent US20030096237A1, “Determination of the ability of patients to respond to a tumor treatment” (priority 2000, published 2003):

Tested on: CNCM I-2546
Experiment: oligonucleotide array analysis of IFN-α modulated gene expression
Assay type: cell-based, human
Design: key to nAD M94880 mhc class i (hla-a*8001): normalized average difference between perfect and mismatch probeset signals
Protocol: All these cell lines were cultured in RPMI medium supplemented with 10% FCS, glutamine (2 mM), sodium pyruvate (1 mM), non-essential amino acids and HEPES buffer (10 mM) (all from GIBCO Life Sciences, Paisley, UK). When confluent, the cells were passaged by trypsinization.
Cultured melanoma cells were harvested by scraping and total cellular RNA was extracted. 10 μg from each sample were used directly as templates for cDNA synthesis using a commercial kit (Roche Molecular Biochemicals, Rotkreuz, Switzerland). The T7 promoter sequence incorporated into the cDNA synthesis primer allowed template amplification and biotin labeling by in vitro transcription using a commercial kit (Affymetrix, Santa Clara, Calif.). After alkaline heat fragmentation […] was hybridised to the array (Affymetrix, Santa Clara, Calif.) and all subsequent steps were performed following standard procedures as supplied with the arrays. Raw data were collected with a confocal laser scanner (Hewlett Packard, Palo Alto, Calif.) using GeneChip software v3.1 (Affymetrix, Santa Clara, Calif.).
Raw data were normalized based on the total chip signal obtained upon hybridisation of ME15 cell line cDNA. This array was selected because: i) the 5′/3′ intensity ratio of control genes was smaller than 3; ii)>25% of the genes are called “present” by Genechip; iii) the image appearance is homogeneous with low background and no sign of mechanical chip damage.
The normalized average difference (nAD) between the signals of the perfect and of the mismatch probesets for each gene was used as the expression level of a given gene. At least one nAD value in a pairwise comparison of data has to exceed 50 to be included. Based on nAD, change factors related to IFN-α exposure were also calculated. Negative nAD values were set to 20 in order to avoid the calculation of artificially high modifications. In order to exclude artefacts, only genes with robust change factors, greater than 2-fold, were included in the analysis. […] Genes were clustered according to their mode of regulation.
Total cellular RNA was extracted from the sensitive and resistant melanoma cell lines identified above, reverse transcribed and processed for hybridization to an oligonucleotide array (Hu6800FL, PN 900183) containing probe sets derived from 7000 full-length human genes. Expression levels for each gene were calculated as normalized average difference (nAD, see materials and methods).
Patterns of genes expressed in IFN-α sensitive and resistant melanoma cell lines were investigated upon 48 hour culture in the presence of IFN-α. CNCM I-2546 and CNCM I-2545 were studied in detail.
In Table 2 below, CNCM I-2546 and CNCM I-2545 cultured for 48 hours in the absence or in the presence of 100 U/ml IFN-α were used to assay cytokine modulated gene expression as matched with data obtained in fibrosarcoma cells. This analysis yielded six clusters of genes. […] Data are presented as average difference of signal intensity between match and mismatch probesets.
In Table 3 below, CNCM I-2546 and CNCM I-2545 cell lines cultured for 48 hours in the absence or in the presence of 100 U/ml IFN-α were used to identify novel cytokine induced genes whose expression was not found to be modulated in fibrosarcoma cells. Cluster 1 includes genes inducible in the CNCM I-2546 sensitive but not in the CNCM I-2545 resistant cell line. Cluster 2 comprises genes inducible in both lines. Data are presented as average difference of signal intensity between match and mismatch probesets.

[1] = CNCM I-2546 (+) IFN-α 100 U/ml 48 hours, (−) 0
[2] = CNCM I-2546 (+) IFN-α 100 U/ml 48 hours, (−) 24
[3] = CNCM I-2546 (+) IFN-α 100 U/ml 48 hours, (−) 43
[4] = CNCM I-2546 (+) IFN-α 100 U/ml 48 hours, (−) 55
[5] = CNCM I-2546 (+) IFN-α 100 U/ml 48 hours, (−) 77
[6] = CNCM I-2546 (+) IFN-α 100 U/ml 48 hours, (−) 107
[7] = CNCM I-2546 (+) IFN-α 100 U/ml 48 hours, (−) 110
[8] = CNCM I-2546 (+) IFN-α 100 U/ml 48 hours, (−) 150

## IFN-α
[1]
  nAD L37043 casein kinase i epsilon: 441
  nAD L40387 thyroid receptor interactor (trip14): 85
CNCM I-2546 (+) IFN-α 100 U/ml 48 hours, (−) 3
  nAD U51127 interferon regulatory factor 5: 116
CNCM I-2546 (+) IFN-α 100 U/ml 48 hours, (−) 12
  nAD Z56281 interferon regulatory factor 3: 136
CNCM I-2546 (+) IFN-α 100 U/ml 48 hours, (−) 15
  nAD M98343 amplaxin (ems1): 141
CNCM I-2546 (+) IFN-α 100 U/ml 48 hours, (−) 18
  nAD J03909 gamma-interferon-inducible protein (ip-30): 57
CNCM I-2546 (+) IFN-α 100 U/ml 48 hours, (−) 21
  nAD D32050 alanyl-trna synthetase: 427
[2]
  nAD M60784 ul snrnp-specific protein: 216
  nAD X57351 1-8d gene from interferon-inducible gene family: 297
CNCM I-2546 (+) IFN-α 100 U/ml 48 hours, (−) 28
  nAD D28137 bst-2: 305
CNCM I-2546 (+) IFN-α 100 U/ml 48 hours, (−) 31
  nAD S81914 iex-1 = radiation-inducible immediate-early gene: 312
CNCM I-2546 (+) IFN-α 100 U/ml 48 hours, (−) 34
  nAD X96401 rox protein: 143
[3]
  nAD M79462 pml-1: 1
  nAD U22970 16-jun gene, interferon-inducible peptide (6-16): 2363
CNCM I-2546 (+) IFN-α 100 U/ml 48 hours, (−) 46
  nAD L42243 ifnar2 gene (interferon receptor): −4
CNCM I-2546 (+) IFN-α 100 U/ml 48 hours, (−) 49
  nAD U52513 rig-g: 96
[4]
  nAD K01900 lymphocyte interferon alpha type 201: 85
  nAD M19650 2′,3′-cyclic nucleotide 3prime-phosphodiesterase: 269
CNCM I-2546 (+) IFN-α 100 U/ml 48 hours, (−) 58
  nAD X95325 dna binding protein a variant: 375
CNCM I-2546 (+) IFN-α 100 U/ml 48 hours, (−) 67
  nAD X15949 interferon regulatory factor-2 (irf-2): 11
CNCM I-2546 (+) IFN-α 100 U/ml 48 hours, (−) 73
  nAD Z26491 gene catechol o-methyltransferase: 337
[5]
  nAD U69126 fuse binding protein 2 (fbp2): 302
  nAD X76538 mpv17: 313
CNCM I-2546 (+) IFN-α 100 U/ml 48 hours, (−) 80
  nAD U50327 protein kinase c substrate 80k-h gene (prkcsh): 312
CNCM I-2546 (+) IFN-α 100 U/ml 48 hours, (−) 83
  nAD U09579 melanoma differentiation associated (mda-6): 361
CNCM I-2546 (+) IFN-α 100 U/ml 48 hours, (−) 86
  nAD U70063 human acid ceramidase: 221
CNCM I-2546 (+) IFN-α 100 U/ml 48 hours, (−) 89
  nAD Y00264 amyloid a4 precursor: 304
CNCM I-2546 (+) IFN-α 100 U/ml 48 hours, (−) 92
  nAD L35249 vacuolar h + -atpase mr 56,000 subunit (ho57): 227
CNCM I-2546 (+) IFN-α 100 U/ml 48 hours, (−) 104
  nAD U41515 dss1: 51
[6]
  nAD U18018 ela enhancer binding protein (ela-f): 340
  nAD X04412 plasma gelsolin: 372
[7]
  nAD D50914 EST: 359
  nAD U65579 mitochondrial nadh dehydrogenase-ubiquinone: 377
CNCM I-2546 (+) IFN-α 100 U/ml 48 hours, (−) 113
  nAD U72206 guanine nucleotide regulatory factor (lfp40): 459
CNCM I-2546 (+) IFN-α 100 U/ml 48 hours, (−) 119
  nAD D78132 rheb gene, ras-related gtp binding protein gene: 307
CNCM I-2546 (+) IFN-α 100 U/ml 48 hours, (−) 122
  nAD X70848 protein phosphatase 1, catalytic subunit: 370
CNCM I-2546 (+) IFN-α 100 U/ml 48 hours, (−) 132
  nAD M31013 nonmuscle myosin heavy chain (nmhc): 441
CNCM I-2546 (+) IFN-α 100 U/ml 48 hours, (−) 138
  nAD J00212 leukocyte interferon (ifn-alpha): 49
CNCM I-2546 (+) IFN-α 100 U/ml 48 hours, (−) 141
  nAD U91316 acyl-coa thioester hydrolase: 706
CNCM I-2546 (+) IFN-α 100 U/ml 48 hours, (−) 144
  nAD D49824 hla-b null allele: 925
CNCM I-2546 (+) IFN-α 100 U/ml 48 hours, (−) 147
  nAD HG2917 major histocompatibility complex, class i, e: 813
[8]
  nAD D21235 hhr23a protein: 582
  nAD U61263 acetolactate synthase homolog: 464
CNCM I-2546 (+) IFN-α 100 U/ml 48 hours, (−) 153
  nAD M65028 heterogeneous nuclear ribonucleoprotein a/b: 326
CNCM I-2546 (+) IFN-α 100 U/ml 48 hours, (−) 156
  nAD HG658 major histocompatibility complex, class 1 c: 1692
CNCM I-2546 (+) IFN-α 100 U/ml 48 hours, (−) 168
  nAD J04182 lysosomal membrane glycoprotein-1 (lamp1): 452
CNCM I-2546 (+) IFN-α 100 U/ml 48 hours, (−) 184
  nAD L07633 interferon-gamma: 463
CNCM I-2546 (+) IFN-α 100 U/ml 48 hours, (−) 187
  nAD U18009 chromosome 17q21 clone lf113: 735
CNCM I-2546 (+) IFN-α 100 U/ml 48 hours, (−) 193
  nAD U47025 fetal brain glycogen phosphorylase b: 924
CNCM I-2546 (+) IFN-α 100 U/ml 48 hours, (−) 202
  nAD M94880 mhc class i (hla-a*8001): 932
CNCM I-2546 (+) IFN-α 100 U/ml 48 hours, (−) 248
  nAD J00105 beta-2 microglobulin gene: 1453
CNCM I-2546 (+) IFN-α 100 U/ml 48 hours, (−) 263
  nAD Z47055 farnesyl pyrophosphate synthetase like: 529
CNCM I-2546 (+) IFN-α 100 U/ml 48 hours, (−) 275
  nAD U78525 human eukaryotic translation initiation factor (eif3): 589
CNCM I-2546 (+) IFN-α 100 U/ml 48 hours, (−) 300
  nAD U65932 extracellular matrix protein 1 (ecm1): 907
CNCM I-2546 (+) IFN-α 100 U/ml 48 hours, (−) 309
  nAD J04444 cytochrome c-1 gene: 1286
CNCM I-2546 (+) IFN-α 100 U/ml 48 hours, (−) 401
  nAD HG1612 macmarcks: 1440
CNCM I-2546 (+) IFN-α 100 U/ml 48 hours, (−) 425
  nAD X90846 mixed lineage kinase 2: 173
CNCM I-2546 (+) IFN-α 100 U/ml 48 hours, (−) 429
  nAD M34338 spermidine synthase: 1413
CNCM I-2546 (+) IFN-α 100 U/ml 48 hours, (−) 444
  nAD L13210 mac-2 binding protein: 2016
CNCM I-2546 (+) IFN-α 100 U/ml 48 hours, (−) 487
  nAD K03515 neuroleukin: 2126
CNCM I-2546 (+) IFN-α 100 U/ml 48 hours, (−) 756
  nAD M30818 interferon-induced cellular resistance mediator protein: 155
CNCM I-2546 (+) IFN-α 100 U/ml 48 hours, (−) −9
  nAD U72882 interferon-induced leucine zipper protein (ifp35): 502
CNCM I-2546 (+) IFN-α 100 U/ml 48 hours, (−) −31
  nAD U53830 interferon regulatory factor 7a: 237
CNCM I-2546 (+) IFN-α 100 U/ml 48 hours, (−) −37
  nAD M97935 transcription factor isgf-3: 296
CNCM I-2546 (+) IFN-α 100 U/ml 48 hours, (−) −49
  nAD X57522 ring4 cdna: 97
CNCM I-2546 (+) IFN-α 100 U/ml 48 hours, (−) −64
  nAD X07730 prostate specific antigen: 132
CNCM I-2546 (+) IFN-α 100 U/ml 48 hours, (−) −70
  nAD U50648 interferon-inducible rna-dependent protein kinase (pkr): 71
CNCM I-2546 (+) IFN-α 100 U/ml 48 hours, (−) −73
  nAD U01824 glutamate/aspartate transporter: 91
CNCM I-2546 (+) IFN-α 100 U/ml 48 hours, (−) −89
  nAD J04164 interferon-inducible protein 27-sep: 2066
CNCM I-2546 (+) IFN-α 100 U/ml 48 hours, (−) −147
  nAD M92642 alpha-1 type xvi collagen (col16a1): −133
CNCM I-2546 (+) IFN-α 100 U/ml 48 hours, (−) −181
  nAD M13755 interferon-induced 17-kda/15-kda protein: 716
CNCM I-2546 (+) IFN-α 100 U/ml 48 hours, (−) −211
  nAD X67325 p27: 410
CNCM I-2546, IFN-α 100 U/ml 48 hours
  change factor (CF) D21235 hhr23a protein: 2.88
